According to patent US8524674B2, “Method of improving the conditioned reflex habit, the muscle tonus, or the motion coordination of a patient after suffering trauma to the brain cortex” (Obschestvo S Ogranichennoi Otvetstvennostyu “Sia Peptides”, priority 2006, dated 2013):
Where “and” joins values, the source holds several entries; their conditions need not be identical. Identical values can stand only once. Residues, ends and D or L forms follow the SMILES beside them.

Key:
[1] = tested on: patients with remote consequences of cranial trauma; test: Efficacy in patients with consequences of cranial trauma (clinical result, corrective test, EEG alpha index); type: in vivo; conditions: patients of the main groups after treatment
Experimental: This study was performed on 25 patients aged 31-60 with remote consequences of cranial trauma, who were randomly subdivided into 2 groups. These patients sustained cranial traumas from 1 to 10 years ago. Main group patients were subdivided into 3 groups depending on the severity of their cranial trauma. Patients with the most severe consequences of cranial trauma received the pharmaceutical composition containing peptide H-Glu-Asp-Arg-OH once a day, intramuscularly, in the dose of 5.0 mg in 1 ml of sterile 0.9% NaCl solution for 10 days. Main group patients with cranial trauma consequences of intermediate severity were treated with the pharmaceutical composition containing peptide H-Glu-Asp-Arg-OH once a day, intramuscularly, in the dose of 10.0 μg in 1 ml of sterile 0.9% NaCl solution for 10 days. Main group patients with mild consequences of cranial trauma received the pharmaceutical composition containing peptide H-Glu-Asp-Arg-OH once a day, intramuscularly, in the dose of 1.0 μg in 1.0 ml of sterile 0.9% NaCl solution for 10 days.
The efficacy of the pharmaceutical composition containing H-Glu-Asp-Arg-OH peptide was estimated judging by the effect on integral function of the brain, i.e., attention, and on bioelectric activity of the brain using the corrective test and electroencephalogram.
The evaluation of the effect of pharmaceutical composition containing peptide H-Glu-Asp-Arg-OH on bioelectric activity of the brain was performed by means of calculating the alpha index before and after the treatment.

[2] = tested on: rat brain cortex in hypoxia; test: Free radical oxidation reactions in rat brain cortex in hypoxia; type: in vivo, white mongrel rats
Experimental: The study was performed on 18 white mongrel rats. Peptide H-Glu-Asp-Arg-OH was administered to the animals intraperitoneally, in the dose of 1 μg in 1.0 ml of sterile physiological 0.9% NaCl solution once a day for 10 days. 24 hours after the completion of peptide administration the animals were subjected to hypoxic hypoxia. Hypoxia was modeled in the altitude chamber of flow-ejector type, the atmosphere pressure in the chamber being 0.029 MPa, which corresponds to the altitude of 9000 m above sea level. Compression and decompression rate made 0.005 MPa per minute. Carbon dioxide and moisture absorbent was present in the altitude chamber. The animals were held in the chamber for 3 hours in the conditions of free conduct and under constant observation.
The intensity of peroxide lipid oxidation (POL) was estimated judging by the level of initial POL products, i.e. diene conjugates, and terminal products, i.e. Schiff's bases, playing a significant role in neurons damage. The level of protein peroxidation was estimated by the level of carbonyl derivative amino acids in proteins after interaction with 2,4-dinitrophenylhydrazine.

[3] = tested on: male guinea pigs; test: Study of chronic toxicity, 6 months; conditions: guinea pig, in vivo
Experimental: (§1) The studies of chronic toxicity were conducted for 6 months, basing on the term of recommended clinical administration of the substance, on 84 male guinea pigs with body weight of 270-310 g. Experimental animals received the peptide daily, once a day, intramuscularly, for 6 months in the doses of 1 μg/kg, 0.1 mg/kg, 1 mg/kg in 0.5 ml of sterile 0.9% NaCl solution. Control animals received sterile 0.9% NaCl solution in the same volume and by the same schedule. Traditional methods were used for the evaluation of the following indices of the animals' peripheral blood: the quantity of erythrocytes, hemoglobin, reticulocytes, thrombocytes, leukocytes, leukocyte formula, erythrocyte sedimentation rate (ESR), erythrocyte resistance. Alongside with that, the content of total protein in the serum was identified using Lowry's method, as well as potassium and sodium content using the method of plasma spectrophotometry. After the completion of the experiment pathomorphologic studies of animal brain and spinal cord, spinal cord ganglia, thyroid gland, parathyroid glands, adrenal glands, testis, pituitary body, heart, lungs, aorta, liver, kidneys, urinary bladder, pancreas, stomach, small intestine, large intestine, thymus, spleen, lymph nodes and bone marrow were performed.

[4] = tested on: male guinea pigs; conditions: guinea pig, in vivo
Experimental: as §1

[5] = tested on: brain cortex explants; test: Development of brain cortex explants (area index); type: cell-based, Wistar rats
Experimental: This study was performed on 32 fragments of brain cortex from Wistar rats with body weight of 150-200 g. Nutritional medium for explants cultivation consisted of 35% Eagle's solution, 25% calf fetal serum, 35% Hank's solution, 5% chicken embryonic extract, with the addition of glucose (0.6%), insulin (0.5 units/ml), penicillin (100 units/ml), glutamine (2 mM). […] Peptide H-Glu-Asp-Arg-OH was added into the medium, reaching ultimate concentration of 1, 10 and 100 ng/ml.
Area index (AI), i.e. the ratio of total explant area together with the growth zone to the initial area of brain cortex fragment served as the criterion of biologic activity. The statistical significance of the difference between the compared mean AI values was evaluated using Student's t-criterion. AI values were expressed in percent, control AI values being considered as 100%.

[6] = tested on: isolated neurons of Astacus leptodactilus crayfish; test: Life span of isolated crayfish neurons; type: cell-based; conditions: 10 μg/ml
Experimental: Isolated neurons of Astacus leptodactilus crayfish for the in vitro study of peptide H-Glu-Asp-Arg-OH on their life span were extracted by axotomia, being regarded as a model of cell death by apoptosis.
Stretching receptor neurons of a crayfish closely resemble central neurons of vertebrals by their electrophysiological, biological and structure properties. They generate spikes with nearly constant rate during 10-15 hours. Two symmetrical neurons (control and experimental) extracted from the abdominal segment were placed into 2 ml chambers filled with Harreveld's solution. Neuronal potentials were registered extracellularly on the axons by fastened glass pipette electrodes, then amplified and recorded using H-338 recorder. At the same time the frequency of action potentials was registered using two-channel analog frequency meter and H-339 data recorders. In the beginning of the experiment impulse frequency of experimental and control neurons was set on the level of 10-15 Hz by the stretching of the muscle. After 1 hour of stabile spike generation with constant rate peptide H-Glu-Asp-Arg-OH in the concentration of 10 μg/ml was added into the experimental chamber. The activity of the neurons was constantly recorded before the spontaneous termination of spikes generation. Life span of neurons was compared for each couple. Altogether 10 couples of neurons were used.

[7] = tested on: white mongrel male rats; test: Study of sub-acute toxicity, 90 days; type: in vivo; conditions: long-term administration, doses exceeding the therapeutic one by 100-1000 times
Experimental: The study of sub-acute toxicity was performed on 65 white mongrel male rats with body weight of 160-210 g. […] Morphology and properties of the animals' peripheral blood were studied before the administration of the substance, as well as on the 30th, 60th and 90th day after the beginning of the administration. Upon completion of the experiment biochemical and coagulologic indices of the blood were also evaluated.

[8] = tested on: white mongrel male mice; conditions: mouse, in vivo
Experimental: The study of acute toxicity was performed on 72 white mongrel male mice with body weight of 20-22 g. The animals were randomly subdivided into 6 equal groups. The substance was administered to the animals once, intramuscularly, in the doses of 1 mg/kg, 2 mg/kg, 3 mg/kg, 4 mg/kg, 5 mg/kg in 0.25 ml of sterile 0.9% NaCl solution. The control animals received 0.9% NaCl solution in the same volume.

[9] = tested on: rats with heavy compression cranial trauma; test: Reparative processes in rat brain cortex after acute heavy cranial trauma (CAAR, rotating rod); type: in vivo, white mongrel rats
Excerpt: The effect of peptide H-Glu-Asp-Arg-OH on reparative processes in the brain was estimated on the pattern of acute heavy cranial trauma. The dynamics of central nervous system functions restoration were identified by testing motion coordination and muscle tonus of the animals, as well as their ability to learning and reproducing the conditioned reflex habit.
24 white mongrel rats were subjected to heavy compression cranial trauma from a falling leaden bob.
The estimation of the rats' ability to learn and reproduce the habits was performed using the test of conditioned active avoidance reflex (CAAR). Muscle tonus and motion coordination were tested by rotating the rats on a rod with increasing speed and measuring the time of their holding on to the rod.

[10] = tested on: rats with spinal cord trauma; test: Morphologic alterations in the central nervous system in spinal cord trauma; type: in vivo, Wistar rats
Experimental: The study was performed on mature Wistar rats of both sexes with body weight of 180-200 g. The experimental group of 27 rats was subjected to spinal cord trauma.
The animals were injured in the lumbar segment of the spinal cord according to the following method. The lateral surfaces of anesthetized rats' vertebrae on the level of the last rib were compressed through the skin using dressing forceps with a force of 15 kg on the working surfaces. In 24 hours after the trauma the surviving animals were subdivided into 2 groups.
The rats of the second group (control) received sterile physiological saline solution in the same volume.
Neurohistological studies were performed in the animals of both groups on the 30th day of the experiment. For this purpose spinal cord ganglia were taken from the spots of injury and above the injured spots, as well as lumbar and cervical segments of the spinal cord and motor cortex fragments and pyramid tracts of the brain. Neurohistological studies were performed using electronic and luminous microscopy.
The samples intended for luminous microscopy were fixed in 96% spirit and 10% formalin, then packed into celloidin with subsequent staining with hematoxylin-eosine, as well as staining by Nissle, Van Gison, Weigert, Spielmeyer. The samples were fixed and cut in accordance with conventional methods of histological processing and staining of the samples.
The samples intended for electronic microscopy were fixed by 2% osmic acid with cacodylate buffer, then packed in Epon 812 and contrasted in lead […] by Reynolds. The preliminary evaluation of the samples was performed using semifine sections. Ultrafine sections were studied using electronic microscope UEM-100SKh.

[11] = 1 μg intraperitoneally once a day for 10 days, then hypoxia
[12] = 10 μg/kg intramuscularly daily for 10 days, 30th day

With `N=C(N)NCCC[C@H](NC(=O)[C@H](CC(=O)O)NC(=O)[C@@H](N)CCC(=O)O)C(=O)O` [peptide H-Glu-Asp-Arg-OH, glutamyl-aspartyl-arginine] (H-Glu-Asp-Arg-OH) the “Number of mistakes (corrective test)” value ([1]; before treatment 12.6 ± 1.3) was 6.4 ± 1.1, the “Alpha index (EEG)” value ([1]; before treatment 35.7 ± 4.6) was 47.9 ± 3.1 and the “Number of registered signs (corrective test)” value ([1]; before treatment 1519.1 ± 141.7) was 2429.6 ± 105.3. The Diene conjugates [2, 11] was 28.57 ± 1.84 nmole/g of tissue, the “Level of proteins peroxidation” value [2, 11] was 4.68 ± 0.07 μmole/mg of protein and the “Schiff's bases” value [2, 11] was 255.4 ± 26.8 conv. units/g of tissue. For the same compound, the “change in Schiff's bases content” value ([2]; hypoxia, vs control) was “tendency towards a decrease”, the “change in the level of diene conjugates” value ([2]; hypoxia, vs control) was “statistically significant decrease” and the protein peroxidation ([2]; hypoxia, vs control) was “inhibited protein peroxidation”. The “pathologic alterations in the organism (general status, blood indices, organ morphology, cardiovascular, respiratory, liver and kidney functions)” value [3] was “no pathologic alterations”, the “changes in blood morphology and biochemical indices” value [4] was “no statistically significant changes” and the “side effects, chronic toxicity” value [4] was “absence of any side effects”. For the same compound, the “Area index (AI) growth as compared to the control” value ([5]; 10 ng/ml, 3rd day of cultivation, statistically significant) was 37%, the “neurites stimulation of cortex explants” value ([5]; after 7 days of cultivating, same concentrations) was “same effects of neurites stimulation” and the “Life span of isolated crayfish neurons” value ([6]; control 11.9 hours) was 13.7 h and 13.7 ± 0.2 h. The “prolongation of the life span of isolated neurons” value ([6]; vs control) was 15%, the “side effects, subacute toxicity” value [7] was “absence of any side effects” and the toxic reactions [8] was “does not cause toxic reactions”. The “time of holding on to the rod relative to the control (rotating rod test)” value ([9]; 48 hours after the trauma, 10 μg/kg intramuscularly) was “more than 2 times”, the “number of animals capable of learning relative to the control” value ([9]; 96 hours after the trauma, 10 μg/kg intramuscularly, CAAR test) was 2 times and the “indices of the animals' learning ability” value ([9]; by the 14th day after the trauma) was “close to normal values”. The “indices of learning ability” value ([9]; in 30 days, 10 μg/kg intramuscularly) was “higher than in the control”, the “alterations in nerve cells and outgrowths of upper spinal cord segments” value [10, 12] was “less pronounced” and the “neuronal cell cytoplasm, electronic microscopy” value [10, 12] was “signs of restoration in the neuronal cells cytoplasm”. The “type of neuronal alterations in the spinal cord at the injury spot” value ([10]; 10 μg/kg intramuscularly daily for 10 days, 30th day, luminous microscopy, control showed much more heavy and ischemic alterations) was “mainly “primarily irritated” cells” and the “effect on spinal cord neurons regeneration” value ([10]; animals with spinal cord trauma) was “stimulating effect on spinal cord neurons regeneration”.
